Consider eight compounds from PMC12837263, “β,β-Dimethylacrylalkannin Restores Colistin Efficacy Against mcr- and TCS-Mediated Resistant Gram-Negative Bacteria via Membrane Disturbance” (Antibiotics, 2025).

A value given as a limit tells only on which side of the number the result lay.

One assay has as its system E. coli 13f4(mcr-1). Description: Checkerboard assay (MIC, FICI). It counts as cell-based. The conditions noted are these: E. coli 13f4 (mcr-1); antibiotic + β,β-Dim. How it is done:
(§1) The FICI of β,β-Dim–colistin combination was determined by a checkerboard assay. Briefly, two-fold serial dilutions of β,β-Dim and colistin were prepared in a 96-well plate. After incubation at 37 °C for 18 h with bacterial suspension (10^6 CFU/mL), OD600 values were measured. FICI = (MICβ,β-Dim in combination/MICβ,β-Dim) + (MICcolistin in combination/MICcolistin). The synergistic effect of β,β-Dim with other antibiotics was measured in the same way. Synergy was considered to be an FICI ≤ 0.5.

For assay [1], the system named is K. pneumoniae 667(phoP、pmrA、blaKPC). Description: Checkerboard assay (MIC, FICI). In kind it is cell-based. The conditions noted are these: K. pneumoniae 667 (phoP, pmrA); antibiotic + β,β-Dim. How it is done: as §1
On the set-up of assay [2]: method as in PMID 31882661. The conditions noted are these: cited from earlier work.

For the compound `CNC(C)C1CCC(N)C(OC2C(N)CC(N)C(OC3OCC(C)(O)C(NC)C3O)C2O)O1` (stereo not drawn) [gentamicin], the “FICI of β,β-Dim combined with the antibiotic” value (“FICI of β,β-Dim combined” for short) (in the assay on E. coli 13f4(mcr-1); in assay [1]) was above 1 in each case.

For the compound `CC[C@H]1OC(=O)C[C@@H](O)[C@H](C)[C@@H](O[C@@H]2O[C@H](C)[C@@H](O[C@H]3C[C@@](C)(O)[C@@H](O)[C@H](C)O3)[C@H](N(C)C)[C@H]2O)[C@@H](CC=O)C[C@@H](C)C(=O)/C=C/C(C)=C/[C@@H]1CO[C@@H]1O[C@H](C)[C@@H](O)[C@@H](OC)[C@H]1OC` [tylosin], the “FICI of β,β-Dim combined” value (in the assay with E. coli 13f4(mcr-1); in assay [1]) was above 1 throughout.

In the case of `CC1(C)S[C@@H]2[C@H](NC(=O)[C@H](N)c3ccccc3)C(=O)N2[C@H]1C(=O)O` [ampicillin], the “FICI of β,β-Dim combined” value (with E. coli 13f4(mcr-1); in assay [1]) was above 1 in each case.

For the compound `CO[C@H]1/C=C/O[C@@]2(C)Oc3c(C)c(O)c4c(O)c(c(/C=N/N5CCN(C)CC5)c(O)c4c3C2=O)NC(=O)/C(C)=C\C=C\[C@H](C)[C@H](O)[C@@H](C)[C@@H](O)[C@@H](C)[C@H](OC(C)=O)[C@@H]1C` [rifampicin], the “FICI of β,β-Dim combined” value (in the assay with E. coli 13f4(mcr-1); in assay [1]) was above 1 throughout.

As to `CS(=O)(=O)c1ccc([C@@H](O)[C@@H](CF)NC(=O)C(Cl)Cl)cc1` [florfenicol], the “FICI of β,β-Dim combined” value (with E. coli 13f4(mcr-1); in assay [1]) was above 1 each time.

For the compound `O=C(O)c1cn(C2CC2)c2cc(N3CCNCC3)c(F)cc2c1=O` [ciprofloxacin], the “FICI of β,β-Dim combined” value (with E. coli 13f4(mcr-1); in assay [1]) was above 1 each time.

As for `C[C@H]1c2cccc(O)c2C(=O)C2=C(O)[C@]3(O)C(=O)C(C(N)=O)=C(O)[C@@H](N(C)C)[C@@H]3[C@@H](O)[C@@H]21` [doxycycline], the “FICI of β,β-Dim combined” value (in the assay on E. coli 13f4(mcr-1); in assay [1]) was above 1 each time.

As for `N#CC(C#N)=NNc1cccc(Cl)c1` [CCCP, carbonyl cyanide 3-chloro phenyl hydrazone], the “reduction of colistin MIC by combination with CCCP” value in assay [2] is “approximately 8 fold”.
